Reference: patent US11583511B2, “Maresins for use in the treatment of CNS injuries” (UNIVERSITAT AUTONOMA DE BARCELONA, priority 2017, dated 2023)

Legend:
[1] = tested on: neutrophils, macrophages and microglia in the contused spinal cord; assay: Flow cytometry of immune cell counts in contused spinal cord after MaR1 treatment; assay type: in vivo, C57BI/6 mice; details: vs saline
Procedure: (§1) All surgical procedures were approved by the Universitat Autònoma de Barcelona Animal Care Committee and followed the guidelines of the European Commission on Animal Care, and the methods for each procedure were carried out in accordance with the approved guidelines. 142 Adult (8 to 10 weeks old) female C57BI/6 mice (Charles River) were anesthetized with ketamine:xylazine (90:10 mg/kg). After performing a laminectomy at the 11th thoracic vertebrae, the exposed spinal cord was contused using the Infinite Horizon Impactor device (Precision Scientific Instrumentation, Lexington, Ky.). Injuries were made using a force of 60 kdynes and tissue displacement ranging between 500-700 μm as reported earlier (Coll-Miro et al., 2016).
(§2) One hour after spinal cord injury, 1 μg of MaR1 (7S,14S-dihydroxy-4Z,8E,10E,12Z,16Z, 19Z-docosahexaenoic acid; Cayman Chemical) was injected intravenously in 100 μl of sterile saline, and then repeated daily thereafter until day 7. Control mice were injected with an equal volume of sterile saline following the same injection protocol. Precautions with regards to the handling of lipid mediators to prevent inactivity due to oxygenation were implemented. The MaR1 dosage was chosen accordingly to be above levels i) of approved MaR1 bioactivity in experimental disease models (Serhan et al., 2015) and ii) above SPM dosages sufficient to exert bioactivity in the CNS with intact and closed blood brain barrier (Marcheselli et al., 2003; Svensson et al., 2007).
(§3) Immune cells from the laminectomized and injured spinal cord were analyzed by flow cytometry at 1, 3, 7, 14, 21 and 28 days post-injury as described previously to study the dynamics of immune cell in spinal cord injury as described previously (Santos-Nogueira et al., 2015; Coll-Miro et al., 2016; Francos-Quijorna et al., 2016). Similarly, spinal cord from mice treated with MaR1 or saline were also harvested at day 1, 3 and 7 post-lesion. Briefly, spinal cords were cut in little pieces and passed through a cell strainer of 70 μm (BD falcon) and the cell suspension was centrifuged twice at 300 g for 10 minutes at 4° C. After cell counts, samples were divided, and cells alone and isotype-matched control samples were generated to control for nonspecific binding of antibodies and for auto-fluorescence. The following antibodies from eBioscience were used at 1:250 concentration: CD45-PerCP, CD11b-PE-Cy7, Ly6C-FITC, Ly6G-PE, Gr1-FITC, F4/80-APC or PE, CD3-FITC, CD4-APC, CD8-APC, CD19-PE, CD206-FITC, CD16/32-PE. After 30 min of incubation with combinations of antibodies at 4° C., cells were then fixed in 1% paraformaldehyde. For intracellular staining, cells were permeabilized with Permeabilization Wash Buffer (Biolegend), incubated with unconjugated rabbit antibodies against iNOS (1:200 Abcam), and goat antibodies against Arg1 (1:200; Santa Cruz) for 30 minutes, followed by staining with Alexa488 or Alexa647 conjugated donkey secondary antibodies against rabbit or goat (1:500 Molecular Probes) for 30 min. Finally, samples were washed and fixed in 1% paraformaldehyde. To perform the analysis, cells were first gated for CD45 to ensure that only infiltrating leukocytes and resident microglia are selected. Then, the following combination of markers were used to identify: microglia (CD45^low, CD11b^+, F4/80^+); macrophages (CD45^high, CD11b^+, F4/80^+); neutrophils (CD45^high, CD11b^+, F4/80^−, Gr1^high); CD4 T-Cells (CD45^+, CD11b^−, CD3^+, CD4^+); CD8 T Cells (CD45^+, CD11b, CD3^+, CD8^+); B cell (CD45^+, CD11b^−, CD3^−, CD19^+). To study the phenotype of microglia and macrophages, these cells were further differentiated based on Ly6C, CD16/32, iNOS, CD206 and Arg1 expression (Coll-Miro et al., 2016; Francos-Quijorna et al., 2016). Analysis of inflammatory cell kinetics at the lesion site was conducted applying objective and quantifiable measures of resolution dynamics as described previously (Pruss et al., 2011). […]

[2] = tested on: cytokines and chemokines in the contused spinal cord; assay: Cytokine protein expression in contused spinal cord (Luminex); assay type: in vivo, C57BI/6 mice
Procedure: as §1, §2
Mice treated with saline or MaR1 were perfused with sterile saline and a 5 mm length of spinal cord centered on the lesion was collected at 12 and 24 h after contusion injury and snap-frozen. Spinal cords were homogenized and protein concentration was determined using the DC Protein Assay (Bio-Rad). Samples were concentrated to 4 μg/μl using MicroCon centrifugation filters (Millipore) to ensure equal amounts of protein. Low concentrations of cytokines in the sample result in binding to the filters whereas high concentrations of protein sustain less losses. The protein levels of 32 cytokines and chemokines were then analyzed using the Milliplex MAP Mouse Cytokine/Chemokine magnetic bead panel (Millipore) on a Luminex (Millipore) as per manufacturers' protocol (Francos-Quijorna et al., 2016).

[3] = tested on: STAT, MAPK, NF-κB and PI3K/Akt signaling; assay: Western blotting of inflammatory signaling pathways in contused spinal cord; assay type: in vivo, C57BI/6 mice; details: vs saline
Procedure: as §1, §2
Samples used for Luminex assay, were also used to for western blotting. Protein samples (30 μg) were separated by electrophoresis on a 10-15% polyacrylamide gel and transferred onto PVDF membranes (Millipore). The membranes were incubated overnight at 4° C. with rabbit antibodies against phospho NF-kB p65 (1:1000; Cell Signaling), against the phosphorylated form of STAT1 (1:500; Cell Signaling), STAT3 (1:500; Cell Signaling), STAT5 (1:500; Cell Signaling) and STAT6 (1:500; Cell Signaling), JNK (1:500; Santa Cruz), ERK1/2 (1:1000; Cell Signaling), p38 (1:1000; Cell Signaling) and AKT (1:1000; Cell Signaling). Bands were detected using Chemiluminescence (Immobilon Western Chemiluminescence HRP reagent, Millipore) and data quantified by densitometry using Workflow v3 software in a Chemidoc apparatus (Millipore). ß-actin (1:10.000; Sigma Aldrich) was used to ensure equal loading of samples.

[4] = tested on: macrophages and microglia (Ly6C, iNOS, Arg1); assay: Flow cytometry of macrophage and microglia phenotype after SCI; assay type: in vivo, C57BI/6 mice
Procedure: as §1, §2, §3

[5] = tested on: macrophages (CD45high, CD11b+, F4/80+); assay: Efferocytosis: neutrophil marker Ly6G inside macrophages after SCI; assay type: in vivo, C57BI/6 mice; details: 7 days post-lesion; vs saline
Procedure: as §1, with “Injuries were made using a force of 60 kdynes and tissue displacement ranging between 500-700 μm as reported earlier (Coll-Miro et al., 2016).” left out
Immune cells from the laminectomized and injured spinal cord were analyzed by flow cytometry at 1, 3, 7, 14, 21 and 28 days post-injury as described previously to study the dynamics of immune cell in spinal cord injury as described previously (Santos-Nogueira et al., 2015; Coll-Miro et al., 2016; Francos-Quijorna et al., 2016). […] After cell counts, samples were divided, and cells alone and isotype-matched control samples were generated to control for nonspecific binding of antibodies and for auto-fluorescence. […] Analysis of inflammatory cell kinetics at the lesion site was conducted applying objective and quantifiable measures of resolution dynamics as described previously (Pruss et al., 2011). […]

[6] = tested on: spinal cord contusion injury; assay: Functional assessment of locomotor recovery after SCI (BMS, DigiGait, treadmill); assay type: in vivo, C57BI/6 mice
Procedure: as §1, §2
Locomotor recovery was evaluated at 1, 3, 5, 7, 10, 14, 21 and 28 dpi in an open-field test using the nine-point Basso Mouse Scale (BMS) (Basso et al., 2006), which was specifically developed for locomotor testing after contusion injuries in mice. The BMS analysis of hindlimb movements and coordination was performed by two independent assessors blinded for the treatment groups (MaR1 vs saline) and the consensus score taken. […] Moreover, the highest locomotion speed that each mouse was to able locomote for at least 5 seconds was also recorded on the DigiGait treadmill belt. […]

[7] = tested on: spinal cord contusion injury; assay: Histology of secondary tissue damage after SCI; assay type: in vivo, C57BI/6 mice; details: 28 days post-injury, vs saline
Procedure: as §1, §2
At 28 days post-injury, mice were perfused with 4% paraformaldehyde in 0.1M-phosphate buffer (PB). A 5 mm length of spinal cord containing the lesion site was removed, cryoprotected with 30% sucrose in 0.1M PB at 4° C., and 10 series of 10 μm thick section were picked up on glass slides. Adjacent sections on the same slide were therefore 100 μm apart. For quantification of myelin area content in the spinal cord analyses, sections were stained with Luxol Fast Blue (Sigma). […]
The epicenter of the injection or contusion injury impact was determined for each mouse spinal cord by localizing the tissue section with the greatest damage using LFB stained section. Myelin content after SCI was calculated by delineating the are of LFB stained tissue. Neuronal survival was assessed by counting the number of NeuN^+ cells in the ventral horns at the injury epicenter and at rostral and caudal areas. Axonal sparing was calculated by counting the number of axons in the dorsal column at the injury epicenter, the region of most pronounced damage. […] All quantifications were performed blinded to the experimental groups with the help of the ImageJ image analysis software.

[8] = tested on: human macrophages; details: 1 nM concentration; cited from earlier work
[9] = contused spinal cord, 24 h after SCI, MaR1 1 μg i.v., mean ± SEM
[10] = spinal cord tissue 24 hours after SCI

## CC/C=C\C/C=C\C[C@H](O)\C=C/C=C/C=C/[C@@H](O)C/C=C\CCC(=O)O [MaR1, 7S,14S-dihydroxy-4Z,8E,10E,12Z,16Z, 19Z-docosahexaenoic acid]
[1]; 1 μg MaR1 i.v. daily for 7 days
  clearance of neutrophils from the contused spinal cord (Ri and T50): accelerated
[1]; day 1
  entrance of blood-borne macrophages into the contused spinal cord: not different
[1]; day 1 post-injury, 1 μg MaR1 i.v. daily from 1 hour after SCI
  neutrophil counts in contused spinal cord: unaltered
[1]; day 3 post-injury, not significant
  macrophage counts in the contused spinal cord: tended to be reduced
[1]; day 7, 1 μg MaR1 i.v. daily
  reduction of neutrophil counts in the injured spinal cord: ~50%
[1]; day 7 post-lesion
  macrophage accumulation in the lesioned spinal cord: significantly reduced
[1]; first week following contusion injury
  microglial numbers in the contused spinal cord: did not attenuate
[2]; after SCI, vs saline
  protein levels of the anti inflammatory cytokine IL-10: did not reduce
[2]; [9]
  CCL3 protein level: 13.3 ± 1.18
  CCL4 protein level: 17.7 ± 1.46
  CSF3 protein level: 741 ± 118
  CXCL1 protein level: 87.5 ± 21.3
  CXCL2 protein level: 41.4 ± 7.50
  IL-6 protein level: 291 ± 56.7
[2]; injured spinal cord, both groups
  IL-4 protein levels: undetected
[3]; 24 hours post-injury
  ERK1/2 activation: attenuated
  JKN activation: remained unaltered
  STAT1 activation: attenuated
  STAT3 activation: attenuated
  STAT5 activation: attenuated
  STAT6 activation: remained unaltered
  p38 activation: attenuated
[3]; [10]
  pAkt level: not affected
  pP65 level: not affected
[4]; 7 days after SCI
  percent of Ly6Chigh microglia: 10.6%±1.1
[4]; 7 days after SCI, p=0.0036 vs saline
  ratio LyC6low/LyC6high macrophages: 3.73±0.26
[4]; 7 days after SCI, vs saline
  reduction of pro-inflammatory macrophages (Ly6Chigh): ~50%
[4]; 7 days post injury, did not reach statistical significance
  increase of Arg-1 expression in macrophages: ~2 fold
[4]; 7 days post injury, not statistically significant
  iNOS expression in microglia: tended to reduce
[4]; 7 days post injury, vs saline
  iNOS expression in macrophages: significantly reduced
[5]
  increase of neutrophil marker Ly6G inside macrophages (neutrophil phagocytosis): ~2 fold
[6]; 28 dpi, nine-point Basso Mouse Scale, 1 μg MaR1 i.v. daily until day 7
  BMS score: 4.58±0.22
[6]; day 28 post-injury, vs saline
  DigiGait gait symmetry and stance/width stepping variability: improved
  speed of locomotion on the treadmill: significantly faster
[7]; caudal regions to the injury epicenter
  neuronal survival in the ventral horn: improved
[7]; injury epicenter and 200 μm rostral and caudal
  myelin content (LFB): increased
[7]; injury epicenter
  axonal sparing (NF+) in the dorsal columns: enhanced
  demyelination (NF/MBP+) in the dorsal columns: reduced
[8]
  efferocytosis by human macrophages compared with RvD1: greater efferocytosis
